The NIST ThermoML archive (doi:10.1016/j.fluid.2016.02.031)

Columns and labels:
[1] = xn = mol fraction of the nth substance listed; conditions: 100 kPa, Liquid, x2 = 0; for viscosity: Concentric cylinders viscometry; for mass density: Vibrating tube method
[2] = refractive index (Na D-line) (dimensionless); xn = mol fraction of the nth substance listed; conditions: 100 kPa, Liquid, Standard Abbe refractometry, x2 = 0

CCC(C)=O [butanone] + c1ccncc1
Conditions	mass density, [1] [kg/m3]	refractive index, [2]	viscosity, [1] [mPa·s]
288.15 K	810.067	1.38157	0.4308
293.15 K	804.863	1.37901	0.4152
298.15 K	799.632	1.37642	0.3992
303.15 K	794.371	1.37386	0.3826
308.15 K	789.078	1.37125	0.3665
313.15 K	783.752	1.36857	0.3499
318.15 K	778.389	1.36589	0.3336
323.15 K	772.985	1.36315	0.3174
328.15 K	767.539	1.36042	0.3001
333.15 K	762.048	1.35746	0.2829

CCC(C)=O [butanone] + OCCCO
Conditions	mass density, [1] [kg/m3]	refractive index, [2]	viscosity, [1] [mPa·s]
288.15 K	810.067	1.38157	0.4308
293.15 K	804.863	1.37901	0.4152
298.15 K	799.632	1.37642	0.3992
303.15 K	794.371	1.37386	0.3826
308.15 K	789.078	1.37125	0.3665
313.15 K	783.752	1.36857	0.3499
318.15 K	778.389	1.36589	0.3336
323.15 K	772.985	1.36315	0.3174
328.15 K	767.539	1.36042	0.3001
333.15 K	762.048	1.35746	0.2829
